Counter-ions that a name gives are not always drawn.
Target: T1, human GPR14 (Homo sapiens, UniProt Q9UKP6)
T1 construct: expressed in transfected cells
T1 sequence (Q9UKP6 1-389): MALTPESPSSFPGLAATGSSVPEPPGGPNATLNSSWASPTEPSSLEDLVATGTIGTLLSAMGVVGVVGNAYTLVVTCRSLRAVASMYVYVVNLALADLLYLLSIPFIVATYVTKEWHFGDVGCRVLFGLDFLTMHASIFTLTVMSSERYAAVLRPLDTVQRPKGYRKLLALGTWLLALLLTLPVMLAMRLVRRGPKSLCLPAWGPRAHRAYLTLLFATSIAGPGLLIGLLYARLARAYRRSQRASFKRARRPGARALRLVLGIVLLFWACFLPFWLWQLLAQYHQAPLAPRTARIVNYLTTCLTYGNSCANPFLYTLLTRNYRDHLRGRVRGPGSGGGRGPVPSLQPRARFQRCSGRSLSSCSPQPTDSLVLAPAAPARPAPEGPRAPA
Assay: Inhibition of binding of [125I]-labeled human urotensin II to human GPR14-expressing CHO cell membrane fraction
Settings: 25° C., 3 hours, read-out: Inhibitory concentration (concentration at which the compound showed 50% inhibition of human GPR14 binding activity)
Protocol: To 1×10^8 CHO/GPR14 cells were added 10 ml of homogenate buffer (10 mM NaHCO3, 5 mM EDTA, 0.5 mM PMSF, 1 μg/ml pepstatin, 4 μg/ml E64, 20 μg/ml leupeptin), and disrupted using Polytron (12,000 rpm, 1 minute). Cell debris solution was centrifuged at 1,000 g for 15 minutes to obtain a supernatant. The supernatant was then […] (in Beckman type 30 rotor, 30,000 rpm, 1 hour), and the resultant precipitant was collected as human GPR14-expressing CHO cell fraction.
Isotope-labeled human urotensin II to be used in experiments for testing inhibition of binding was prepared as described below. 5 μg of human urotensin II (available from Peptide Institute, Inc.) was dissolved in 25 μl of 0.4M sodium acetate (pH 5.6). To the solution was added 200 ng of lactoperoxidase (Wako Pure Chemical Industries, Ltd.) followed by 1 mCi [^125I]-sodium iodide (Amersham Pharmacia Biotech) and 200 ng of hydrogen peroxide (10 μl). The solution was left to stand at room temperature for 10 minutes, another 200 ng of hydrogen peroxide (10 μl) was added thereto and then the solution was left to stand for 10 minutes. The mixture was then purified by HPLC using TSKgel ODS-80Ts column (4.6 mm×25 cm, Toso Co., Ltd.) to obtain [^125I]-labeled human urotensin II.
Experiment for Testing the Ability of Test compound to Inhibit Binding of Urotensin II to GPR14 Using Human GPR14-Expressing Cell Fraction and Isotope-Labeled Urotensin II
Human GPR14-expressing CHO cell fraction was diluted in a membrane diluting buffer (20 mM phosphate buffer (pH7.3), 150 mM NaCl, 5 mM MgCl2, […], 0.05% CHAPS, 0.5 mM PMSF, 0.1 μg/ml Pepstatin, 20 μg/ml Leupeptin, 4 μg/ml E-64) to prepare a solution of cell membrane fraction (protein concentration: 3 μg/ml) for assay. […] Next, the filter was washed three times with membrane diluting buffer (0.2 ml), added with 20 μl of Microscinti 20 (Packard), and determined for radioactivity in Topcount (Packard). Specific-binding is calculated by subtracting non-specific binding from the total binding. […]

Structure (SMILES) | IC50 [nM]
O=S(=O)(NCCN1CCN(Cc2ccccc2)CC1)c1ccc2c(c1)CCNCC2 [Example 75, N-[2-(4-benzyl-1-piperazinyl)ethyl]-2,3,4,5-tetrahydro-1H-3-benzazepine-7-sulfonamide trihydrochloride] | 8.6
O=C(NCCN1CCN(C(c2ccc(F)cc2)c2ccc(F)cc2)CC1)c1ccc2c(c1)CCNCC2 [Example 84, N-(2-{4-[bis(4-fluorophenyl)methyl]piperazin-1-yl}ethyl)-2,3,4,5-tetrahydro-1H-3-benzazepine-7-carboxamide trihydrochloride] | 1.7
O=C(CCCN1CCN(C(c2ccc(F)cc2)c2ccc(F)cc2)CC1)c1ccc2c(c1)CCNCC2 [Example 6, 4-{4-[bis(4-fluorophenyl)methyl]-1-piperazinyl}-1-(2,3,4,5-tetrahydro-1H-3-benzazepin-7-yl)-1-butanone trihydrochloride] | 3.2

Reference: US20040063699A1, “Gpr14 antagonist” (priority 2000, published 2004)
